Measured values reported in ChEMBL document CHEMBL1141236, “Surfing the piperazine core of tricyclic farnesyltransferase inhibitors” (Bioorg Med Chem Lett, 2005).

Columns and labels:
[1] = target: T1, Protein farnesyltransferase (Homo sapiens, UniProt P49354+P49356); assay: Inhibitory activity against human farnesyltransferase; format: protein-complex assay
[2] = target: T1, Protein farnesyltransferase; assay: Inhibitory activity in COS cell Ha-Ras processing assay; format: functional, cell-based, Chlorocebus aethiops

IC50 [2] [nM] | Compound | IC50 [1] [nM]
2000 | O=C(NCc1cccnc1)C1CCCN(C2c3ccc(Cl)cc3CCc3cc(Br)cnc32)C1 (stereo not drawn) | 120
2000 | O=C(CC1CN(C2c3ccc(Cl)cc3CCc3cc(Br)cnc32)CCN1C(=O)CCc1ccccc1)NCc1cccnc1 (stereo not drawn) | 960

The remaining lines, values behind:

Compound | IC50 [2] [nM] | IC50 [1] [nM]
O=C(NCc1cccnc1)C1CN(C2c3ccc(Cl)cc3CCc3cc(Br)cnc32)CCN1C(=O)CCc1ccccc1 (stereo not drawn) |  | 30
O=C(CC1CN(C2c3ccc(Cl)cc3CCc3cc(Br)cnc32)CCN1C(=O)Cc1ccncc1)NC1CC1 (stereo not drawn) |  | 70
CNC(=O)C1CN(C2c3ccc(Cl)cc3CCc3cc(Br)cnc32)CCN1C(=O)Cc1ccc(Cl)cc1 (stereo not drawn) |  | 100
O=C(NCC1CC1)C1CN(C2c3ccc(Cl)cc3CCc3cc(Br)cnc32)CCN1C(=O)Cc1ccncc1 (stereo not drawn) |  | 50
